The source of these data is patent publication US10323043B2, “Derivatives of macrocyclic N-aryl-tricyclopyrimidine-2-amine polyethers as inhibitors of FTL3 and JAK” (PIERRE FABRE MEDICAMENT, priority 2014, dated 2019).

The target of assay [1] is T1, FLT3 (Homo sapiens, UniProt P36888).
T1 construct: purchased Life Technologies PV3182
T1 sequence (P36888 564-993 limits assumed): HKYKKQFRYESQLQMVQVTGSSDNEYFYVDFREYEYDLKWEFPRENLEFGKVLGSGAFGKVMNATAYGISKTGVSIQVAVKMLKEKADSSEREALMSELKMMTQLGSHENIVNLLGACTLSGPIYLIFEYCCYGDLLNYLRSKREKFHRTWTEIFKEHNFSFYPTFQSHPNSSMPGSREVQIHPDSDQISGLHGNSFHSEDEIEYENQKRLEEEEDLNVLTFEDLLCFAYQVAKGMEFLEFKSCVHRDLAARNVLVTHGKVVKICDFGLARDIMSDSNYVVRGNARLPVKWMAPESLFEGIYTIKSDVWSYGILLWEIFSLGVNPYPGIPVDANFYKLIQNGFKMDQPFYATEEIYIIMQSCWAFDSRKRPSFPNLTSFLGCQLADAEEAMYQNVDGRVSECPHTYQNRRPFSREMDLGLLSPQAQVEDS
The assay is described as follows: LanthaScreen TR-FRET binding test, FLT3. The conditions noted are these: recombinant FLT3 15 nM, kinase tracer 236 3 nM, 25° C., 1 hour; read-out: Inhibition (IC50) of FLT3 enzyme. The method, then: (§1) FLT3 (#PV3182), JAK2 (#PV4210) and JAK3 (#PV3855) recombinant enzymes were purchased from Life Technologies. FLT3-ITD (#0778-0000-1) and FLT3^D835Y (#14-610) proteins were purchased from ProQinase and Merck Millipore, respectively. All the tests were carried out in 384-well plates. The principle of these binding tests is based on the LanthaScreen® TR-FRET methodology from Life Technologies.
(§2) The reaction mixture (15 μL total volume) contains the following compounds: 15 nM FLT3, FLT3-ITD or FLT3^D835Y, 3 nM kinase tracer 236 (Life Technologies, #PV5592) and 6 nM LanthaScreen® anti-GST antibody coupled to a europium chelate (Life Technologies, #PV5594) for FLT3-ITD and FLT3^D835Y or 6 nM LanthaScreen® anti-His antibody coupled to a europium chelate (Life Technologies, #PV5596) for FLT3.
(§3) The compounds are evaluated at 8 different concentrations prepared by making dilutions from a starting 10 mM stock solution in dimethylsulfoxide (DMSO) (Sigma, #D8418). The final DMSO concentration in the test is 1%. The reaction is carried out at 25° C. for 1 hour and detected on the EnVision® reader (Perkin Elmer) according to the recommendations of the supplier, Life Technologies.
(§4) The results are presented (Table 1) as the concentration values of the compound at which 50% of the kinase activity is inhibited, IC50 (μM), generated using the PRISM software (GraphPad).
On the technique in general: In TR-FRET formats the signal depends on donor and acceptor labels being close together.

For assay [2], the target named is T2, FLT3-ITD (Homo sapiens, UniProt P36888).
T2 construct: FLT3-ITD (#0778-0000-1) and FLT3^D835Y (#14-610) proteins were purchased from ProQinase and Merck Millipore, respectively; fused on or other part: GST tag, inferred from detection with the anti-GST europium antibody
T2 sequence (P36888 1-993): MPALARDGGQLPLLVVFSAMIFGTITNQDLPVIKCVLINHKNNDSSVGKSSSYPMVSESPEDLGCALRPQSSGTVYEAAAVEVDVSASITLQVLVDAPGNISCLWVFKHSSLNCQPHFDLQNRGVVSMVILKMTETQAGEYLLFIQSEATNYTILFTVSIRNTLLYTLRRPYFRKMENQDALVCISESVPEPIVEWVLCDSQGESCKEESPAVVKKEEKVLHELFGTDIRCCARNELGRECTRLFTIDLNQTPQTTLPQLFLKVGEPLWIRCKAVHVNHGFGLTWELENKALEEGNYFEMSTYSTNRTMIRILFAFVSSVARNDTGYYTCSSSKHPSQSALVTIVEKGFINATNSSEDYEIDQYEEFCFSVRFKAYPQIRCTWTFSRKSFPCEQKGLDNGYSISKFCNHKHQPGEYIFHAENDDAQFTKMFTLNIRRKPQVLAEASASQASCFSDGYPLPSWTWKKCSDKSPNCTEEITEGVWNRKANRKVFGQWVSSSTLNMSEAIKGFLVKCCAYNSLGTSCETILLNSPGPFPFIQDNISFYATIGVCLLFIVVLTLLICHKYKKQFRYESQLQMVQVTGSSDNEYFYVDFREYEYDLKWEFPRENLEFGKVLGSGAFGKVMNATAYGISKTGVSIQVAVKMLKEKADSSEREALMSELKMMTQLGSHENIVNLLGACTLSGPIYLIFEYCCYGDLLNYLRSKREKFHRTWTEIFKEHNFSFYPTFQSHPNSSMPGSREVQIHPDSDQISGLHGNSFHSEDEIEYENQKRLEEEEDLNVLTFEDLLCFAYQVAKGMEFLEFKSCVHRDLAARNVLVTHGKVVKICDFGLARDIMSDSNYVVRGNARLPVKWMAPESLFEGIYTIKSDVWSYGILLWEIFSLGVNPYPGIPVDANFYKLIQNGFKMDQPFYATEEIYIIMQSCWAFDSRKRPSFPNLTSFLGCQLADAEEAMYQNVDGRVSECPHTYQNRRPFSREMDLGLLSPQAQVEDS
The assay is described as follows: LanthaScreen TR-FRET binding test, FLT3-ITD. Particulars: FLT3-ITD 15 nM, kinase tracer 236 3 nM, 25° C., 1 hour; read-out: Inhibition (IC50) of FLT3-ITD enzyme. How it is done:
as §1, §2, §3, §4

Assay [3] deals with T3, JAK2 (Homo sapiens, UniProt O60674).
T3 construct: purchased Life Technologies PV4210
The assay is described as follows: LanthaScreen TR-FRET binding test, JAK2. The conditions noted are these: recombinant JAK2 15 nM, kinase tracer 236 150 nM, 25° C., 1 hour; read-out: Inhibition (IC50) of JAK2 enzyme. How it is done: as §1
The reaction mixture (15 μL total volume) contains the following compounds: 15 nM JAK2 or JAK3, 150 nM kinase tracer 236 (Life Technologies, #PV5592) for JAK2 or 3 nM for JAK3 and 6 nM LanthaScreen® anti-GST antibody coupled to a europium chelate (Life Technologies, #PV5594) for both enzymes.
as §3, §4

SMILES strings stand for the structures.

T3 sequence (O60674 whole entry): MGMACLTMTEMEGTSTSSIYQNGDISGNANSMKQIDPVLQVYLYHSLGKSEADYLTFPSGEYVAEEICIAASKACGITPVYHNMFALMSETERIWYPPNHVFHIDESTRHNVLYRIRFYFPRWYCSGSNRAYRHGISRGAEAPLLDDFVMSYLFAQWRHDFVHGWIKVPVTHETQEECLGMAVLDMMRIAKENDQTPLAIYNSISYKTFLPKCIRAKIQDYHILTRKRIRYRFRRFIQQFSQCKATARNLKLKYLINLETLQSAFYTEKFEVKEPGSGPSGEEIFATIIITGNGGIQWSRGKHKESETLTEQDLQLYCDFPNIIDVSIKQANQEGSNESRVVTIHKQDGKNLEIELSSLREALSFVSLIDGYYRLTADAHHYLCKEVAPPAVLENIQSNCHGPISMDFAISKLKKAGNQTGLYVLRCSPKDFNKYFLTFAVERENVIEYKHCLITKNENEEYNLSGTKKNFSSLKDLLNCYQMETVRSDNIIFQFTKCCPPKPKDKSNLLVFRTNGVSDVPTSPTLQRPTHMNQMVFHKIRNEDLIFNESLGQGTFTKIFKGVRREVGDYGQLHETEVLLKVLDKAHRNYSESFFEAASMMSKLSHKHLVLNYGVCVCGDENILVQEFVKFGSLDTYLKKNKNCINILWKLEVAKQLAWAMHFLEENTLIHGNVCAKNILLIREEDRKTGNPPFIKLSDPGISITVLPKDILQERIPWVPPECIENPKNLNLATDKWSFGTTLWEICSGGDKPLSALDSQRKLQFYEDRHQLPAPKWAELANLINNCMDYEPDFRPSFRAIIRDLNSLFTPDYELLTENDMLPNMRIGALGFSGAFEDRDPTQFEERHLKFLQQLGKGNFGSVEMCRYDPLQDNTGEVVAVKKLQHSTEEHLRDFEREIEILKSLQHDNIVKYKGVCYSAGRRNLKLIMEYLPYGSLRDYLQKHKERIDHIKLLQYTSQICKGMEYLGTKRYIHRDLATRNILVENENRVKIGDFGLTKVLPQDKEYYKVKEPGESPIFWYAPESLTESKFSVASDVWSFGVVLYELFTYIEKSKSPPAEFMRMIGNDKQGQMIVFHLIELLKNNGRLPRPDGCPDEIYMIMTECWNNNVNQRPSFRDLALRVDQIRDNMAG

`CN1CCN(c2ccc3cc2OCCOCCOc2ccc4c(c2)-c2nc(ncc2CC4)N3)CC1` [Compound 3]: the figures for the IC50 in assay [1], in assay [2] and in assay [3] were 2.5 nM, 0.14 nM and 17.5 nM, respectively.
The like results for `c1cc(N2CCNCC2)c2cc1Nc1ncc3c(n1)-c1cc(ccc1CC3)OCCOCCO2` [Compound 5] were, in that order, 4.4 nM, 1.3 nM and 13 nM.
For `c1cc(N2CCC(N3CCOCC3)C2)c2cc1Nc1ncc3c(n1)-c1cc(ccc1CC3)OCCOCCO2` (stereo not drawn) [Compound 7], in that order: 18 nM, 6.4 nM and 40 nM.
The like results for `c1cc(N2CCC(N3CCCCC3)CC2)c2cc1Nc1ncc3c(n1)-c1cc(ccc1CC3)OCCOCCO2` [Compound 10] were, in that order, 6 nM, 1.3 nM and 7.7 nM.
With `c1cc(OCCN2CCCC2)c2cc1Nc1ncc3c(n1)-c1cc(ccc1CC3)OCCOCCO2` [Compound 14], the IC50 (in general, the concentration needed to halve the response being measured) was found to be 7 nM in assay [1], 2 nM in assay [2] and 34 nM in assay [3].
`OC1CCN(c2ccc3cc2OCCOCCOc2ccc4c(c2)-c2nc(ncc2CC4)N3)CC1` [Compound 19]: the results for the IC50 in assay [1], in assay [2] and in assay [3] were 3.6 nM, 2.4 nM and 20 nM, respectively.
The like results for `CN1CC=C(c2ccc3cc2OCCOCCOc2ccc4c(c2)-c2nc(ncc2CC4)N3)CC1` [Compound 23] were, in that order, 4.5 nM, 1.7 nM and 130 nM.
The like results for `c1cc(N2CC3CNCC3C2)c2cc1Nc1ncc3c(n1)-c1cc(ccc1CC3)OCCOCCO2` (stereo not drawn) [Compound 29] were, in that order, 3.7 nM, 0.79 nM and 11.5 nM.
On to `CN(C)C1CCN(c2ccc3cc2OCCOCCOc2ccc4c(c2)-c2nc(ncc2CC4)N3)C1` (stereo not drawn) [Compound 30], for which the values for the IC50 in assay [1], in assay [2] and in assay [3] were 3.2 nM, 1 nM and 10 nM, respectively.
The like results for `CN1CCN(c2ccc3cc2OCCOCCOc2ccc4c(c2)-c2nc(ncc2CC4)N3)CC1(C)C` [Compound 40] were, in that order, 1.9 nM, 0.51 nM and 7.25 nM.
As for `c1cc(N2CC3CCC(C2)N3)c2cc1Nc1ncc3c(n1)-c1cc(ccc1CC3)OCCOCCO2` [Compound 42], the IC50 in assay [1] turned out to be 3.2 nM; in assay [2], 1.1 nM; in assay [3] it was 6.7 nM.
For `c1cc(N2C[C@H]3C[C@@H]2CN3)c2cc1Nc1ncc3c(n1)-c1cc(ccc1CC3)OCCOCCO2` [Compound 44], in that order: 5.2 nM, 1.5 nM and 33.5 nM.
